From patent US8802678B2, “Carbonylated (aza) cyclohexanes as dopamine D3 receptor ligands” (Bioprojet, priority 2006, dated 2014)

For N#CCC(=O)N[C@H]1CC[C@H](CCN2CCN(c3cc(F)c(C(F)(F)F)c(F)c3)CC2)CC1 [Example 574, 2-Cyano-N-(4-{2-[4-(3,5-difluoro-4-trifluoromethylphenyl)piperazin-1-yl]ethyl}cyclohexyl) acetamide], the melting point was 231 °C. In the case of CC(=O)CN1CCC(CCN2CCN(c3cccc(C(F)F)c3)CC2)CC1.Cl.Cl, the melting point is reported as 265 °C. N#CCCCC(=O)N[C@H]1CC[C@H](CCN2CCN(c3ccc4c(c3)CCCC4)CC2)CC1 [Example 510, 4-Cyano-N-(4-{2-[4-(5,6,7,8-tetrahydronaphthalen-2-yl)piperazin-1-yl]ethyl}cyclohexyl)butanamide] showed a melting point of 170 °C. N#CCCCC(=O)N[C@H]1CC[C@H](CCN2CCN(c3cccc(Cl)c3C#N)CC2)CC1 [Example 393, N-(4-{2-[4-(3-Chloro-2-cyanophenyl)piperazin-1-yl]ethyl}cyclohexyl)-4-cyanobutanamide] gave a melting point of 189 °C. Work on CC(=O)CN1CCC(CCN2CCN(c3c(C)cccc3C)CC2)CC1.Cl.Cl yielded a melting point of 249 °C. In the case of COCC(=O)N[C@H]1CC[C@H](CCN2CCN(c3cc(C#N)cc(C(F)(F)F)c3)CC2)CC1 [Example 139, N-(4-{2-[4-(3-Cyano-5-trifluoromethylphenyl)piperazin-1-yl]ethyl}cyclohexyl)-2-methoxyacetamide], the melting point is reported as 140 °C. Work on COCC(=O)N[C@H]1CC[C@H](CCN2CCN(c3cc(F)c(F)c(F)c3)CC2)CC1 [Example 542, 2-Methoxy-N-(4-{2-[4-(3,4,5-trifluorophenyl)piperazin-1-yl]ethyl}cyclohexyl)acetamide] yielded a melting point of 153 °C. Work on CC(C)OCC(=O)N[C@H]1CC[C@H](CCN2CCN(c3ccccc3F)CC2)CC1 [Example 97, N-(4-{2-[4-(2-Fluorophenyl)-piperazin-1-yl]ethyl}cyclohexyl)-2-isopropoxyacetamide] yielded a melting point of 96 °C. N#CCCCC(=O)N[C@H]1CC[C@H](CCN2CC=C(c3cc(F)cc(C(F)(F)F)c3)CC2)CC1 showed a melting point of 114 °C. In the case of N#CCC(=O)N[C@H]1CC[C@H](CCN2CCN(c3cc(C(F)(F)F)ccc3F)CC2)CC1 [Example 174, 2-Cyano-N-(4-{2-[4-(2-fluoro-5-trifluoromethylphenyl)piperazin-1-yl]ethyl}cyclohexyl)acetamide], the melting point is reported as 197 °C. For CN(C)CCCC(=O)N[C@H]1CC[C@H](CCN2CCN(c3cccc(C(F)(F)F)c3)CC2)CC1 [Example 223, 4-Dimethylamino-N-(4-{2-[4-(3-trifluoromethylphenyl)piperazin-1-yl]ethyl}cyclohexyl)butanamide], the melting point was 128 °C. In the case of CCC(=O)CN1CCC(CCN2CCN(c3cccc(Cl)c3Cl)CC2)CC1 [Example 771], the melting point is reported as 68 °C. For CC(=O)CN1CCC(CCN2CCN(c3cccc(CC(C)C)c3)CC2)CC1.Cl.Cl, the melting point was 240 °C. In the case of CC(=O)CN1CCC(CCN2CCN(c3ccc(F)cc3F)CC2)CC1.Cl.Cl, the melting point is reported as 260 °C. Work on COCC(=O)N[C@H]1CC[C@H](CCN2CCN(c3cccc4c3CCCC4)CC2)CC1 [Example 130, 2-Methoxy-N-(4-{2-[4-(5,6,7,8-tetrahydronaphthalen-1-yl)piperazin-1-yl]ethyl}cyclohexyl)acetamide] yielded a melting point of 120 °C. Molecule CCCC(=O)CN1CCC(CCN2CCN(c3cccc4c3CCC4)CC2)CC1.Cl.Cl has a melting point of 270 °C. For N#CCCC(=O)N[C@H]1CC[C@H](CCN2CCN(c3cccc(C(F)(F)F)c3F)CC2)CC1 [Example 214, 3-Cyano-N-(4-{2-[4-(2-fluoro-3-trifluoromethylphenyl)piperazin-1-yl]ethyl}cyclohexyl)propanamide trans/cis 95/5], the melting point was 153 °C. In the case of COCCCC(=O)N[C@H]1CC[C@H](CCN2CCN(c3ccc(Cl)c(Cl)c3)CC2)CC1 [Example 502, N-(4-{2-[4-(3,4-Dichlorophenyl)piperazin-1-yl]ethyl}cyclohexyl)-4-methoxybutanamide], the melting point is reported as 175 °C. For Cc1ccc(C(F)(F)F)cc1N1CCN(CC[C@H]2CC[C@H](NC(=O)CC#N)CC2)CC1 [Example 383, 2-Cyano-N-(4-{2-[4-(2-methyl-5-trifluoromethylphenyl)piperazin-1-yl]ethyl}cyclohexyl)acetamide], the melting point was 192 °C. For Cc1ccc(N2CCN(CC[C@H]3CC[C@H](NC(=O)CCCC#N)CC3)CC2)cc1F [Example 538, 4-Cyano-N-(4-{2-[4-(3-fluoro-4-methylphenyl)piperazin-1-yl]ethyl}cyclohexyl)butanamide], the melting point was 180 °C. For N#Cc1cccc(N2CCN(CC[C@H]3CC[C@H](NC(=O)CCC(F)(F)F)CC3)CC2)c1 [Example 653, N-(4-{2-[4-(3-Cyanophenyl)piperazin-1-yl]ethyl}cyclohexyl)-4,4,4-trifluorobutanamide], the melting point was 176 °C. In the case of N#CCC(=O)N[C@H]1CC[C@H](CCN2CCN(c3cc(C(F)(F)F)ccc3Cl)CC2)CC1 [Example 189, N-(4-{2-[4-(2-Chloro-5-trifluoromethylphenyl)piperazin-1-yl]ethyl}cyclohexyl)-2-cyanoacetamide], the melting point is reported as 203 to 204 °C. Cc1ccc(N2CCN(CC[C@H]3CC[C@H](NC(=O)CCCC#N)CC3)CC2)c(F)c1 [Example 485, 4-Cyano-N-(4-{2-[4-(2-fluoro-4-methylphenyl)piperazin-1-yl]ethyl}cyclohexyl)butanamide] gave a melting point of 173 °C. Work on N#CCC(=O)N[C@H]1CC[C@H](CCN2CCN(c3cccc(-c4ccccc4)c3)CC2)CC1 [Example 276, N-{4-[2-(4-Biphenyl-3-yl-piperazin-1-yl)ethyl]cyclohexyl}-2-cyanoacetamide] yielded a melting point of 157 °C. CC(=O)CN1CCC(CCN2CCN(c3ccc(Cl)c(Cl)c3Cl)CC2)CC1.Cl.Cl gave a melting point of 275 °C. With CC(=O)CN1CCC(CCN2CCN(c3cc(C(F)(F)F)cc(C(F)(F)F)c3)CC2)CC1.Cl.Cl the melting point was 260 °C. Work on N#CCC(=O)N[C@H]1CC[C@H](CCN2CCN(c3cc(F)cc(C(F)(F)F)c3)CC2)CC1 [Example 664, 2-Cyano-N-(4-{2-[4-(3-fluoro-5-trifluoromethylphenyl)piperazin-1-yl]ethyl}cyclohexyl)acetamide] yielded a melting point of 178 °C. In the case of N#CCC(=O)N[C@H]1CC[C@H](CCN2CCN(c3ccc4c(c3)CCC4)CC2)CC1 [Example 212, 2-Cyano-N-{4-[2-(4-indan-5-ylpiperazin-1-yl)ethyl]cyclohexyl}acetamide], the melting point is reported as 210 °C. Work on N#CCCCCC(=O)N[C@H]1CC[C@H](CCN2CCN(c3cc(C(F)(F)F)ccc3F)CC2)CC1 [Example 731] yielded a melting point of 158 °C. N#CCCCC(=O)N[C@H]1CC[C@H](CCN2CCN(c3cc(F)cc(C(F)(F)F)c3)CC2)CC1 [Example 665, 4-Cyano-N-(4-{2-[4-(3-fluoro-5-trifluoromethylphenyl)piperazin-1-yl]ethyl}cyclohexyl)butanamide] gave a melting point of 163 °C. O=C(CC(F)(F)F)N[C@H]1CC[C@H](CCN2CCN(c3cccc(C(F)(F)F)c3)CC2)CC1 [Example 63, 3,3,3-Trifluoro-N-(4-{2-[4-(3-trifluoromethylphenyl)piperazin-1-yl]ethyl}cyclohexyl)propanamide] gave a melting point of 156 °C. With CC(=O)CN1CCC(CCN2CCN(c3ccc(F)c(F)c3F)CC2)CC1 [Example 656] the melting point was 88 °C.
